In patent publication US20250066389A1, “HETEROCYCLIC AMIDES AND METHODS OF USING THE SAME” (Rgenta Therapeutics, Inc., priority 2021, published 2025):
Counter-ions that a name gives are not always drawn.

These compounds were tested on PMS1 (assay: Mini-Gene Reporter Assay—PMS1 (firefly luciferase mini-gene reporter transiently transfected into HEK293 cells)). Details: Homo sapiens; at 5 uM; mini-gene firefly luciferase reporter in HEK293 cells; read-out: PMS1 % Effect at 5 uM.
Type: cell-based
Description: Example 76. Mini-Gene Reporter Assay—PMS1
Mini-gene reporter constructs for each target site can be constructed by first PCR amplifying the region-of-interest including the sequence of the alternatively skipped, sequences of the immediate upstream and downstream introns, and sequences of the immediate upstream and downstream exons. Then the 3′ end of the amplified sequence can be ligated to a firefly luciferase reporter gene and cloned into the pcDNA3.1 vector backbone. The final reporter construct can be transiently transfected into HEK293 cells using Lipofectamine 3000 transfection reagents. Compounds that can induce the inclusion of the skipped exon in the reporter construct would increase the reporter firefly luciferase activity.
Test compounds may be diluted in duplicates and dispensed into an assay plate. Transient mini-gene reporter cell line stock is resuspended and dispensed into the assay plate. Assay plates are then centrifuged and incubated. A luciferase reagent (e.g. ONE-Glo firefly luciferase reagent from Promega®) may be added to the assay plate and the luminescence (RLU) signals recorded. EC50 values may be determined by curve fitting in Levenberg-Marquardt algorithm.
In Table D below, A indicates a IC50 (μM)<1 μM, B indicates a IC50 (μM) 1 μM to <10 μM, and C indicates a IC50 (μM) 10 μM to <50 μM. In Table D below, A indicates a >75% Effect at 5 μM μM. B indicates a 50 to <75% Effect at 5 μM μM, and C indicates a <50% Effect at 5 μM.

`COc1cc2nc(C)cn2cc1C(=O)Nc1ccc(N2CCC3NCCCC3C2)cc1F` (stereo not shown) [Compound 131, N-(2-fluoro-4-(octahydro-1,6-naphthyridin-6(2H)-yl)phenyl)-7-methoxy-2-methylimidazo[1,2-a]pyridine-6-carboxamide] and `COc1cc2nc(C)cn2cc1C(=O)Nc1ccc(N2CCCNC(CO)C2)cc1F` (stereo not shown) [Compound 141, N-(2-fluoro-4-(3-(hydroxymethyl)-1,4-diazepan-1-yl)phenyl)-7-methoxy-2-methylimidazo[1,2-a]pyridine-6-carboxamide] fall in the same range of activation at 5 µM: 50 to 75% for the first, 50 to 75% for the second.

`COc1cc2nc(C)cn2cc1C(=O)Nc1ccc(N2CC(CO)C3(CNC3)C2)cc1F` (stereo not shown) [Compound 134, N-(2-fluoro-4-(8-(hydroxymethyl)-2,6-diazaspiro[3.4]octan-6-yl)phenyl)-7-methoxy-2-methylimidazo[1,2-a]pyridine-6-carboxamide] and `COc1cc2nc(C)cn2cc1C(=O)Nc1ccc(N2CCC3(CNC3)C2)cc1F` [Compound 152, N-(2-fluoro-4-(2,6-diazaspiro[3.4]octan-6-yl)phenyl)-7-methoxy-2-methylimidazo[1,2-a]pyridine-6-carboxamide] cannot be ordered by activation at 5 µM: < 50% for the first, < 50% for the second.

`COc1cc2nc(C)cn2cc1C(=O)Nc1ccc(N2CCC3(CCNC3)CC2)cc1F` [Compound 135, N-(2-fluoro-4-(2,8-diazaspiro[4.5]decan-8-yl)phenyl)-7-methoxy-2-methylimidazo[1,2-a]pyridine-6-carboxamide] and `COc1cc2nc(C)cn2cc1C(=O)Nc1ccc(N2CCC3(CC2)CNC3)cc1F` [Compound 150, N-(2-fluoro-4-(2,7-diazaspiro[3.5]nonan-7-yl)phenyl)-7-methoxy-2-methylimidazo[1,2-a]pyridine-6-carboxamide] cannot be ordered by activation at 5 µM: < 50% for the first, < 50% for the second.

First: COc1cc2nc(C)cn2cc1C(=O)Nc1ccc(N2CCC(NCC3CC3)CC2)cc1F [Compound 136, N-(4-(4-((cyclopropylmethyl)amino)piperidin-1-yl)-2-fluorophenyl)-7-methoxy-2-methylimidazo[1,2-a]pyridine-6-carboxamide]
Second: CCNC1CCN(c2ccc(NC(=O)c3cn4cc(C)nc4cc3OC)c(F)c2)CC1 [Compound 149, N-(4-(4-(ethylamino)piperidin-1-yl)-2-fluorophenyl)-7-methoxy-2-methylimidazo[1,2-a]pyridine-6-carboxamide]
The activation at 5 µM of the first is lower: 50 to 75% for the first, > 75% for the second.

First: COCCNC1CCN(c2ccc(NC(=O)c3cn4cc(C)nc4cc3OC)c(F)c2)CC1 [Compound 137, N-(2-fluoro-4-(4-((2-methoxyethyl)amino)piperidin-1-yl)phenyl)-7-methoxy-2-methylimidazo[1,2-a]pyridine-6-carboxamide]
Second: CCNC1CCCN(c2ccc(NC(=O)c3cn4cc(C)nc4cc3OC)c(F)c2)C1 (stereo not shown) [Compound 151, N-(4-(3-(ethylamino)piperidin-1-yl)-2-fluorophenyl)-7-methoxy-2-methylimidazo[1,2-a]pyridine-6-carboxamide]
The activation at 5 µM of the first is higher: 50 to 75% for the first, < 50% for the second.

`COc1cc2nc(C)cn2cc1C(=O)Nc1ccc(N2CC3CCCC(C2)NC3)cc1F` (stereo not shown) [Compound 138, N-(4-(3,9-diazabicyclo[3.3.2]decan-3-yl)-2-fluorophenyl)-7-methoxy-2-methylimidazo[1,2-a]pyridine-6-carboxamide] and `COc1cc2nc(C)cn2cc1C(=O)Nc1ccc(N2C3CCCC2CNC3)cc1F` [Compound 140, N-(4-(3,9-diazabicyclo[3.3.1]nonan-9-yl)-2-fluorophenyl)-7-methoxy-2-methylimidazo[1,2-a]pyridine-6-carboxamide] cannot be ordered by activation at 5 µM: > 75% for the first, > 75% for the second.

Going from `COc1cc2nc(C)cn2cc1C(=O)Nc1ccc(N2CCNCC3(CC3)C2)cc1F` [Compound 139, N-(2-fluoro-4-(5,8-diazaspiro[2.6]nonan-5-yl)phenyl)-7-methoxy-2-methylimidazo[1,2-a]pyridine-6-carboxamide] to `COc1cc2nc(C)cn2cc1C(=O)Nc1ccc(N2CCC3(CCNC3)C2)cc1F` (stereo not shown) [Compound 145, N-(2-fluoro-4-(2,7-diazaspiro[4.4]nonan-2-yl)phenyl)-7-methoxy-2-methylimidazo[1,2-a]pyridine-6-carboxamide], the activation at 5 µM falls from > 75% to < 50%.

First: COc1cc2nc(C)cn2cc1C(=O)Nc1ccc(N2CCN[C@@H](C(C)C)C2)cc1F [Compound 142, (S)-N-(2-fluoro-4-(3-isopropylpiperazin-1-yl)phenyl)-7-methoxy-2-methylimidazo[1,2-a]pyridine-6-carboxamide]
Second: COc1cc2nc(C)cn2cc1C(=O)Nc1ccc(N2CCNC(CF)C2)cc1F (stereo not shown) [Compound 159, N-(2-fluoro-4-(3-(fluoromethyl)piperazin-1-yl)phenyl)-7-methoxy-2-methylimidazo[1,2-a]pyridine-6-carboxamide]
The activation at 5 µM of the first is higher: > 75% for the first, 50 to 75% for the second.

First: COc1cc2nc(C)cn2cc1C(=O)Nc1ccc(N2CCC3(CCN3)CC2)cc1F [Compound 143, N-(2-fluoro-4-(1,7-diazaspiro[3.5]nonan-7-yl)phenyl)-7-methoxy-2-methylimidazo[1,2-a]pyridine-6-carboxamide]
Second: COc1cc2nc(C)cn2cc1C(=O)Nc1ccc(N2CCC3(CCCN3)C2)cc1F (stereo not shown) [Compound 146, N-(2-fluoro-4-(1,7-diazaspiro[4.4]nonan-7-yl)phenyl)-7-methoxy-2-methylimidazo[1,2-a]pyridine-6-carboxamide]
The activation at 5 µM of the first is higher: > 75% for the first, < 50% for the second.

First: COCC1CNCCN1c1ccc(NC(=O)c2cn3cc(C)nc3cc2OC)c(F)c1 (stereo not shown) [Compound 144, N-(2-fluoro-4-(2-(methoxymethyl)piperazin-1-yl)phenyl)-7-methoxy-2-methylimidazo[1,2-a]pyridine-6-carboxamide]
Second: COc1cc2nc(C)cn2cc1C(=O)Nc1ccc(N2CCNCC(O)C2)cc1F (stereo not shown) [Compound 153, N-(2-fluoro-4-(6-hydroxy-1,4-diazepan-1-yl)phenyl)-7-methoxy-2-methylimidazo[1,2-a]pyridine-6-carboxamide]
The activation at 5 µM of the first is higher: 50 to 75% for the first, < 50% for the second.

For `COc1cc2nc(C)cn2cc1C(=O)Nc1ccc(N2C3CCNCC2CC3)cc1F` (stereo not shown) [Compound 148, N-(4-(3,9-diazabicyclo[4.2.1]nonan-9-yl)-2-fluorophenyl)-7-methoxy-2-methylimidazo[1,2-a]pyridine-6-carboxamide], the activation at 5 µM was < 50%.

Same assay, conditions: Homo sapiens; mini-gene firefly luciferase reporter in HEK293 cells

Compared with `Cc1cn2cc(C(=O)Nc3ccc(N4CCNCC4)cn3)c(OC(C)C)cc2n1` [Compound 129, 7-isopropoxy-2-methyl-N-(5-(piperazin-1-yl)pyridin-2-yl)imidazo[1,2-a]pyridine-6-carboxamide hydrochloride], `CCOc1cc2nc(C)cn2cc1C(=O)Nc1ccc(N2CCNCC2)cn1` [Compound 130, 7-ethoxy-2-methyl-N-(5-(piperazin-1-yl)pyridin-2-yl) imidazo[1,2-a]pyridine-6-carboxamide hydrochloride] is lower in IC50: 1000 to 10000 nM for the first, < 1000 nM for the second. The second is the more potent here.

`COc1cc2nc(C)cn2cc1C(=O)Nc1ccc(N2CCC3(CCCN3)CC2)cc1F` [Compound 132, N-(2-fluoro-4-(1,8-diazaspiro[4.5]decan-8-yl)phenyl)-7-methoxy-2-methylimidazo[1,2-a]pyridine-6-carboxamide] and `COc1cc2nc(C)cn2cc1C(=O)Nc1ccc(N2CCC3(CC2)COCCN3)cc1F` [Compound 133, N-(2-fluoro-4-(4-oxa-1,9-diazaspiro[5.5]undecan-9-yl)phenyl)-7-methoxy-2-methylimidazo[1,2-a]pyridine-6-carboxamide] cannot be ordered by IC50: < 1000 nM for the first, < 1000 nM for the second.

`COc1cc2nc(C)cn2cc1C(=O)Nc1ccc(N2CC3CCCC(C2)N3)cc1F` [Compound 147, N-(4-(3,9-diazabicyclo[3.3.1]nonan-3-yl)-2-fluorophenyl)-7-methoxy-2-methylimidazo[1,2-a]pyridine-6-carboxamide] and `COc1cc2nc(C)cn2cc1C(=O)Nc1ccc(N2CC3CNC(C3)C2)cc1F` (stereo not shown) [Compound 155, N-(4-(3,6-diazabicyclo[3.2.1]octan-3-yl)-2-fluorophenyl)-7-methoxy-2-methylimidazo[1,2-a]pyridine-6-carboxamide] cannot be ordered by IC50: < 1000 nM for the first, < 1000 nM for the second.

`COc1cc2nc(C)cn2cc1C(=O)Nc1ccc(N2[C@H](C)CNC[C@@H]2C)cc1F` [Compound 154, N-(4-((28,6R)-2,6-dimethylpiperazin-1-yl)-2-fluorophenyl)-7-methoxy-2-methylimidazo[1,2-a]pyridine-6-carboxamide] and `COc1cc2nc(C)cn2cc1C(=O)Nc1ccc(N2CCNC(C)C2C)cc1F` (stereo not shown) [Compound 157, N-(4-(2,3-dimethylpiperazin-1-yl)-2-fluorophenyl)-7-methoxy-2-methylimidazo[1,2-a]pyridine-6-carboxamide] cannot be ordered by IC50: < 1000 nM for the first, < 1000 nM for the second.

`COc1cc2nc(C)cn2cc1C(=O)Nc1ccc(N2CCNCCC2C)cc1F` (stereo not shown) [Compound 158, N-(2-fluoro-4-(7-methyl-1,4-diazepan-1-yl)phenyl)-7-methoxy-2-methylimidazo[1,2-a]pyridine-6-carboxamide] and `COc1cc2nc(C)cn2cc1C(=O)Nc1ccc(N2CCNC(C)CC2)cc1F` (stereo not shown) [Compound 160, N-(2-fluoro-4-(5-methyl-1,4-diazepan-1-yl)phenyl)-7-methoxy-2-methylimidazo[1,2-a]pyridine-6-carboxamide] cannot be ordered by IC50: < 1000 nM for the first, < 1000 nM for the second.
